From patent US5527703A (Merck & Co., Inc., priority 1994, dated 1996)

Molecular target: T1, GluCl α&β (Caenorhabditis elegans, UniProt G5EBR3+Q17328)
T1 construct: the full-length open reading frame of the GluCl cDNA encoding the GluClα (52,550 kDa) and GluClβ (49,900kDa) subunits; expressed in transfected cells; host or cells: Xenopus laevis oocytes injected with in vitro RNA
T1 sequence (G5EBR3 21-461): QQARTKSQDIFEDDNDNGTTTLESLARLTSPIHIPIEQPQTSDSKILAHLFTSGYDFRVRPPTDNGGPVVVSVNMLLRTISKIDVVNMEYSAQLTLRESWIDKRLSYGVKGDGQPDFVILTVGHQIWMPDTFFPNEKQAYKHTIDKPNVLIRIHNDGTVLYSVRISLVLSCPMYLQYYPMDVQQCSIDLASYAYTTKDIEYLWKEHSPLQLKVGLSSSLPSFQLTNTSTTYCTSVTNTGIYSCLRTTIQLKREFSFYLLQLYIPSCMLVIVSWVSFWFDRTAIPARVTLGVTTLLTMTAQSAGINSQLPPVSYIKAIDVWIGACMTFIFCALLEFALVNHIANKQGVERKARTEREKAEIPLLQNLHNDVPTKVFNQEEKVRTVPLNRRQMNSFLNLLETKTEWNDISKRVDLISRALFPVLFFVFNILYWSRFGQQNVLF
T1 sequence (Q17328 23-434): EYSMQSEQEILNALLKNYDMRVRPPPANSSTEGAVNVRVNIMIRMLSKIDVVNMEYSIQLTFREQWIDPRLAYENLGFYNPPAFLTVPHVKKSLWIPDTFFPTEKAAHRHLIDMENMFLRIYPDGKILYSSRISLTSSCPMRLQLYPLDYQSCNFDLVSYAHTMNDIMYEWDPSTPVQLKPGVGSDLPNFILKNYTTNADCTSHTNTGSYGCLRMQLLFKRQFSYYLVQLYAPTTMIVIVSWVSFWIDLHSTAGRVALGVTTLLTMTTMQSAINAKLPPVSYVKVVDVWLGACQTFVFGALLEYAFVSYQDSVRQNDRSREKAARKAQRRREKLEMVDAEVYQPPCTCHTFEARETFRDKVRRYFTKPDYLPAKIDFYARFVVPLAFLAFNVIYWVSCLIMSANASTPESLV
Assay: Agonist activation of current in Xenopus oocytes injected with GluClα and GluClβ RNA (two-microelectrode voltage clamp)
Type: cell-based, C. elegans
Details: for type of drug-sensitive current: GluCl α&β oocytes; for voltage dependence of current: I/V
Protocol: Xenopus laevis oocytes were prepared and injected using standard methods previously described and known in the art [Arena, J. P., Liu. K. K., Paress, P. S. & Cully. D. F. Mol. Pharmacol. 40, 368-374 (1991 ); Arena, J. P., Liu, K. K., Paress, P. S., Schaeffer, J. M. & Cully, D. F. Mol. Brain Res. 15, 339-348 (1992)]. Adult female Xenopus laevis were anesthetized with 0.17% tricaine methanesulfonate and the ovaries were surgically removed and placed in a dish consisting of (mM): NaCl 1 82.5, KCl 2. MgCl2 1, CaCl2 1.8, HEPES 5 adjusted to pH 7.5 with NaOH (OR-2). Ovarian lobes were broken open, rinsed several times, and gently shaken in OR-2 containing 0.2% collagenase (Sigma, Type 1A) for 2-5 hours. When approximately 50% of the follicular layers were removed, Stage V and VI oocytes were selected and placed in media consisting of (mM): NaCl 86, KCl 2, MgCl2 1, CaCl2 1.8, HEPES 5, Na pyruvate 2.5, theophylline 0.5, gentamicin 0.1 adjusted to pH 7.5 with NaOH (ND-96) for 24-48 hours before injection. Oocytes were injected with 50-70 nl of poly(A^+) RNA (1 mg/ml) or 50 nl of GluClα (0.1-100 ng) and/or GluClβ (0.1-100 ng). Control oocytes were injected with 50 nl of water. Oocytes were incubated for 2-10 days in ND-96 before recording. Incubations and collagenase digestion were carried out at 18° C.
Recordings were made at room temperature 2-10 days after injection. Unless otherwise indicated recordings were made in standard frog saline consisting of (mM): NaCl 115, KCl 2, MgCl2 1, CaCl2 1.8, HEPES 10 adjusted to pH 7.5 with NaOH. Oocytes were voltage-clamped using a standard two microelectrode amplifier (Dagan 8500 or TEV-200, Minneapolis,Minn.). Pipettes were filled with 3M KCl and had resistances between 0.5-3.0 M.OMEGA.. A plexiglass recording chamber (volume 200 μl) was constantly perfused at a rate of 10 ml/min. The recording chamber was connected to ground with a Ag/AgCl electrode directly, or through a 3M KCl agar bridge when extracellular chloride was varied. For low chloride solutions NaCl was replaced with equimolar concentrations of sodium isethionic acid. For low sodium solutions NaCl was replaced with equimolar KCl or choline Cl. Data were acquired and analyzed using PCLAMP with a TL-1 interface (Axon Instruments, Foster City, Calif.). Membrane current at a holding potential of -80 mV was recorded. The amplitude of drug-sensitive current was determined by subtracting the holding current at -80 mV from the peak current obtained in the presence of drug. Data were filtered at 30 Hz and sampled at 16.6 Hz. Current/voltage relationships (I/V) and reversal potentials (Erev) were determined using a 1-3 sec voltage ramp over the voltage range of -110 to +80 mV. For the ramps, data were filtered at 0.3-3 kHz and sampled at 160 Hz. Current in drug free solution was subtracted from current in the presence of drug to obtain drug-sensitive current/voltage relationships.
Electrophysiological properties were examined in oocytes injected with in vitro RNA from pGluClα and pGluClβ (FIG. 5).
Several ligand-gated ion channel agonists and antagonists were tested on oocytes injected with GluCl α&β (Table 1). […] 255, 449-464 (1976); Arena, J. P., Liu, K. K., Paress, P. S., Schaeffer, J. M. & Cully, D. F. Mol. Brain Res. 15, 339-348 (1992); Lea, T. J. & Usherwood, P. N. R. Comp. Gen. Pharmacol. 4, 351-363 (1973)].

| Molecule | activation of current / sensitivity of coexpressed GluCl α&β | glutamate concentrations at which desensitization of the glutamate-sensitive current was observed (GluCl α&β injected oocytes) | type of drug-sensitive current | Hill coefficient (glutamate) (GluCl α&β, no IVMPO4) | voltage dependence of current (GluCl α&β) | Hill coefficient (IVMPO4) (GluCl α&β) | time for maximal activation of IVMPO4-sensitive current (GluCl α&β) [s] | EC50 (GluCl α&β, read-out: EC50 for IVMPO4 activation of current) [nM] | % of Glutamate 10 mM (agonist 1 μM, -80 mV, % of response elicited with 10 mM glutamate) [%] |
| --- | --- | --- | --- | --- | --- | --- | --- | --- | --- |
| N[C@@H](CCC(=O)O)C(=O)O [glutamate] | direct activation of current | greater than 1 mM | rapidly activating reversible | 1.7 | outwardly rectifying |  |  |  |  |
| ivermectin-4-O-phosphate [IVMPO4] | direct activation of current |  | irreversible |  | outwardly rectifying | 2.5 | 42 ± 2 | 190 | 117 ± 13 |
